According to ChEMBL document CHEMBL5625240, “Synthesis and evaluation of 2-NMPA derivatives as potential agents for prevention of osteoporosis in vitro and in vivo” (Eur J Med Chem, 2023):
“And” between values parts separate entries of the source, which are not always exact repeats. Identical values can stand only once. The source made the active and inactive calls. No cut-off for these calls is given here.

Legend:
[1] = tested on: BMDM; experiment: Anti-osteoporosis activity in mouse BMDM cells assessed as inhibition of RANKL-induced osteoclastogenesis at 2 uM measured for 30 mins in presence of MCSF by TRAP staining based assay; format: functional; details: for inhibition at 2 µM: Mus musculus, BMDM
[2] = tested on: BMDM; experiment: Anti-osteoporosis activity in mouse BMDM cells assessed as inhibition of […]-induced osteoclastogenesis at 2 uM measured for 30 mins in presence of MCSF by TRAP staining based assay; format: functional; details: 0.5 h
[3] = tested on: BMDM; experiment: Anti-osteoporosis activity in mouse BMDM cells assessed as inhibition of RANKL-induced osteoclastogenesis at 1 uM measured for 30 mins in presence of MCSF by TRAP staining based assay; format: functional; details: 0.5 h
[4] = tested on: BMDM; experiment: Downregulation of NFATc1 expression in mouse RANKL-induced BMDM cells at 1 uM incubated for 4 days by Western blot analysis; format: functional, cell-based; details: time 4.0 day
[5] = tested on: BMDM; experiment: Inhibition of PI3K phosphorylation in RANKL/M-CSF-induced mouse BMDM cells by Western blot analysis; format: cell-based; details: dose 1.0 µM
[6] = tested on: BMDM; experiment: Inhibition of RANKL/M-CSF-induced osteoclastogenesis in mouse BMDM cells assessed as reduction in F-actin belt size formation at 1000 nM incubated for 6 days by immunofluorescence assay; format: functional, cell-based; details: time 6.0 day
[7] = tested on: BMDM; experiment: Cytotoxicity against mouse BMDM cells assessed as reduction in cell viability at < 4 uM incubated for 48 hrs; format: toxicity, cell-based
[8] = tested on: BMDM; experiment: Inhibition of RANKL/M-CSF-induced osteoclastogenesis in mouse BMDM cells assessed as decrease in Acp5 mRNA level at 1 uM incubated for 4 days by qRT-PCR analysis; format: functional, cell-based; details: time 4.0 day
[9] = tested on: BMDM; experiment: Anti-osteoclastogenesis activity in mouse BMDM cells assessed as inhibition of RANKL/M-CSF-induced osteoclasts differentiation at 2 uM measured for 9 days by […] staining based assay; format: functional; details: 216 h, time 9 day
[10] = tested on: BMDM; experiment: Inhibition of RANKL/M-CSF-induced osteoclastogenesis in mouse BMDM cells assessed as decrease in bone resorption pit number at 500 to 2000 nM incubated for 6 days by microscopic analysis; format: functional, cell-based; details: dose 500-2000 nM, time 6.0 day
[11] = tested on: Mus musculus; experiment: Anti-osteoporosis activity in OVX-induced osteoporosis C57BL/6 mouse model assessed as recovery of trabecular number in femur at 10 mg/kg, ip daily for 4 weeks by micro computed tomographic analysis; format: functional, organism-based
[12] = tested on: BMDM; experiment: Inhibition of RANKL/M-CSF-induced osteoclastogenesis in mouse BMDM cells assessed as decrease in Dc-stamp mRNA level at 1 uM incubated for 4 days by qRT-PCR analysis; format: functional, cell-based; details: time 4.0 day
[13] = tested on: BMDM; experiment: Inhibition of RANKL/M-CSF-induced osteoclastogenesis in mouse BMDM cells assessed as decrease in Nfatc1 mRNA level at 1 uM incubated for 4 days by qRT-PCR analysis; format: functional, cell-based; details: time 4.0 day
[14] = tested on: BMDM; experiment: Anti-osteoclastogenesis activity in mouse BMDM cells assessed as inhibition of RANKL/M-CSF-induced osteoclasts differentiation at below 2 uM measured for 9 days by […] staining based assay; format: functional, cell-based; details: time 9.0 day
[15] = tested on: BMDM; experiment: Inhibition of AKT phosphorylation in RANKL/M-CSF-induced mouse BMDM cells by Western blot analysis; format: cell-based; details: dose 1.0 µM
[16] = tested on: BMDM; experiment: Inhibition of RANKL/M-CSF-induced osteoclastogenesis in mouse BMDM cells assessed as decrease in bone resorption pit size at 500 to 2000 nM incubated for 6 days by microscopic analysis; format: functional, cell-based; details: dose 500-2000 nM, time 6.0 day
[17] = tested on: BMDM; experiment: Anti-osteoclastogenesis activity in RANKL/M-CSF-induced mouse BMDM cells assessed as inhibition of TRAF6 protein expression at 1 uM measured for 4 days; format: functional, cell-based; details: time 4.0 day
[18] = tested on: Mus musculus; experiment: Anti-osteoporosis activity in OVX-induced osteoporosis C57BL/6 mouse model assessed as recovery of trabecular separation in femur at 10 mg/kg, ip daily for 4 weeks by micro computed tomographic analysis; format: functional, organism-based
[19] = target: T1, NF-kappa-B inhibitor alpha (Mus musculus) (UniProt Q9Z1E3); experiment: Inhibition of IkappaBalpha phosphorylation in RANKL/M-CSF-induced mouse BMDM cells by Western blot analysis; format: cell-based; details: dose 1.0 µM
T1 sequence (whole entry): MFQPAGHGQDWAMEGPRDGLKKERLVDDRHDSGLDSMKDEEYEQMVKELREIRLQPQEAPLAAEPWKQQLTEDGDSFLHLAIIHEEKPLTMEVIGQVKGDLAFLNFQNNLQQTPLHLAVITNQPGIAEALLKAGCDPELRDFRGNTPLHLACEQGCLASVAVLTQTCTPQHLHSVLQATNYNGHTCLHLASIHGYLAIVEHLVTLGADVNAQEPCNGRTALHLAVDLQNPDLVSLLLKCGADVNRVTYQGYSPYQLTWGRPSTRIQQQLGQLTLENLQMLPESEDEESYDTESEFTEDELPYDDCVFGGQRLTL

[20] = tested on: BMDM; experiment: Inhibition of RANKL/M-CSF-induced osteoclastogenesis in mouse BMDM cells assessed as reduction in F-actin belt size formation at 500 to 2000 nM incubated for 6 days by immunofluorescence assay; format: functional, cell-based; details: dose 500-2000 nM, time 6.0 day
[21] = tested on: BMDM; experiment: Anti-osteoporosis activity in mouse BMDM cells assessed as inhibition of RANKL/M-CSF-induced osteoclasts formation measured for 4 days by TRAP staining based assay; format: functional, cell-based
[22] = tested on: BMDM; experiment: Downregulation of TRAF6 expression in RANKL-induced mouse BMDM cells at 1 uM incubated for 4 days by Western blot analysis; format: functional, cell-based; details: time 4.0 day
[23] = tested on: BMDM; experiment: Inhibition of NF-kappaB phosphorylation in RANKL/M-CSF-induced mouse BMDM cells by Western blot analysis; format: cell-based; details: dose 1.0 µM
[24] = tested on: BMDM; experiment: Downregulation of c-src expression in RANKL-induced mouse BMDM cells at 1 uM incubated for 4 days by Western blot analysis; format: functional, cell-based; details: time 4.0 day
[25] = tested on: BMDM; experiment: Inhibition of RANKL/M-CSF-induced osteoclastogenesis in mouse BMDM cells assessed as decrease in Atp6v0d2 mRNA level at 1 uM incubated for 4 days by qRT-PCR analysis; format: functional, cell-based; details: time 4.0 day
[26] = tested on: BMDM; experiment: Inhibition of RANKL/M-CSF-induced osteoclastogenesis in mouse BMDM cells assessed as decrease in Mmp9 mRNA level at 1 uM incubated for 4 days by qRT-PCR analysis; format: functional, cell-based; details: time 4.0 day
[27] = tested on: Mus musculus; experiment: Anti-osteoporosis activity in OVX-induced osteoporosis C57BL/6 mouse model assessed as prevention of bone loss in femur at 10 mg/kg, ip daily for 4 weeks by micro computed tomographic analysis; format: functional, organism-based
[28] = tested on: BMDM; experiment: Inhibition of RANKL/M-CSF-induced osteoclastogenesis in mouse BMDM cells assessed as decrease in CTSK mRNA level at 1 uM incubated for 4 days by qRT-PCR analysis; format: functional, cell-based; details: time 4.0 day
[29] = tested on: BMDM; experiment: Downregulation of CTSK expression in RANKL-induced mouse BMDM cells at 1 uM incubated for 4 days by Western blot analysis; format: functional, cell-based; details: time 4.0 day
[30] = tested on: Mus musculus; experiment: Anti-osteoporosis activity in OVX-induced osteoporosis C57BL/6 mouse model assessed as reduction in […] level in serum at 10 mg/kg, ip daily for 4 weeks; format: functional, organism-based
[31] = tested on: Mus musculus; experiment: Anti-osteoporosis activity in OVX-induced osteoporosis C57BL/6 mouse model assessed as recovery of trabecular volume in femur at 10 mg/kg, ip daily for 4 weeks by micro computed tomographic analysis; format: functional, organism-based
[32] = tested on: BMDM; experiment: Inhibition of RANKL/M-CSF-induced osteoclastogenesis in mouse BMDM cells assessed as reduction in F-actin belt size formation at 1 uM incubated for 6 days by immunofluorescence assay; format: functional, cell-based; details: time 6.0 day
[33] = tested on: BMDM; experiment: Downregulation of c-fos expression in RANKL-induced mouse BMDM cells at 1 uM incubated for 4 days by Western blot analysis; format: functional, cell-based; details: time 4.0 day
[34] = tested on: Mus musculus; experiment: Anti-osteoporosis activity in OVX-induced osteoporosis C57BL/6 mouse model assessed as recovery of bone surface density in femur at 10 mg/kg, ip daily for 4 weeks by micro computed tomographic analysis; format: functional, organism-based
[35] = tested on: BMDM; experiment: Inhibition of RANKL/M-CSF-induced osteoclastogenesis in mouse BMDM cells assessed as decrease in bone resorption pit size at 1000 nM incubated for 6 days by microscopic analysis; format: functional, cell-based; details: time 6.0 day

O=C(CS(=O)(=O)c1ccccc1)Nc1cccc(Cl)c1N1CCOCC1
inhibition at 2 µM ([1]; 0.5 h): 62.1%

Cc1cc(=O)oc2cc(OCC(=O)Nc3cc(C(F)(F)F)ccc3N3CCOCC3)ccc12
inhibition at 2 µM ([1]; 0.5 h): 95.3%
inhibition at 2 µM [2]: 29.4%

O=C(COc1ccccc1Cl)Nc1ccc(OS(=O)(=O)C(F)(F)F)cc1N1CCOCC1
inhibition at 1 µM [3]: 50.5%

O=C(CSc1cccc2ccccc12)Nc1ccccc1N1CCOCC1
inhibition at 2 µM ([1]; 0.5 h): 61.3%

COC(=O)c1ccc(N2CCOCC2)c(NC(=O)COc2cccc(C)c2)c1
inhibition at 1 µM [3]: 52.5%
inhibition (INH) ([1]; 0.5 h, 2 µM): 94.58% and 52.52%
inhibition at 2 µM [2]: 2.77%

CC(Oc1ccc(Cl)cc1Cl)C(=O)Nc1cccc(Cl)c1N1CCOCC1 (configuration not stated)
inhibition at 2 µM ([1]; 0.5 h): 43.4%

CC(=O)Nc1ccc(S(=O)(=O)Oc2ccc(NC(=O)COc3ccccc3Cl)c(N3CCOCC3)c2)cc1
Activity [4]: Active
inhibition [5]: Active
inhibition [6]: Active
inhibition at 1 µM [3]: 61.5%
Activity [7]: Non-Toxic
inhibition [8]: Active
inhibition at 2 µM [9]: 100%
inhibition [10]: Active
Activity [11]: Active
inhibition [12]: Active
inhibition [13]: Active
inhibition [14]: inactive
inhibition [15]: Active
inhibition [16]: Active
Activity [17]: Active
Activity [18]: Active
inhibition [19]: Active
inhibition [20]: Active
IC50 ([21]; 96 h): 358 nM
inhibition ([21]; dose <= 4000.0 nM, time 4.0 day): Dose-Dependent Effect
Activity [22]: Active
inhibition [23]: Active
Activity [24]: Active
inhibition [25]: Active
inhibition [26]: Active
Activity [27]: Active
inhibition [28]: Active
Activity [29]: Active
Activity [30]: Active
Activity [31]: Active
inhibition [32]: Active
Activity [33]: Active
Activity [34]: Active

CS(=O)(=O)N(CC(=O)Nc1ccccc1Sc1ccccc1)c1cccc(C(=O)Oc2ccc(NC(=O)COc3ccccc3Cl)c(N3CCOCC3)c2)c1
inhibition at 1 µM [3]: 50.9%

O=C(COc1ccccc1Cl)Nc1ccccc1N1CCOCC1
inhibition at 1 µM [3]: 21%

CCC(=O)Oc1ccc(NC(=O)COc2ccccc2Cl)c(N2CCOCC2)c1
inhibition at 1 µM [3]: 32.8%

Cc1cccc(OCC(=O)Nc2ccccc2N2CCOCC2)c1C
inhibition at 2 µM ([1]; 0.5 h): 13.6%

Cc1ccc(OCC(=O)Nc2cccc(Cl)c2N2CCOCC2)c(C(C)C)c1
inhibition at 2 µM ([1]; 0.5 h): 86.4%
inhibition at 2 µM [2]: 82.9%

NCCCC(O)(P(=O)(O)O)P(=O)(O)O [ALENDRONIC ACID]
inhibition at 2 µM ([1]; 0.5 h): 67.9%

CC(=O)Nc1ccc(S(=O)(=O)Oc2ccc(N)c(N3CCOCC3)c2)cc1
inhibition at 1 µM [3]: 11.3%

O=C(COc1ccccc1Cl)Nc1ccc(O)cc1N1CCOCC1
inhibition at 1 µM [3]: 27.1%

CC(C)(C)[Si](C)(C)Oc1ccc(NC(=O)COc2ccccc2Cl)c(N2CCOCC2)c1
inhibition at 1 µM [3]: 34.8%

CCCN(CCC)S(=O)(=O)c1ccc(C(=O)Oc2ccc(NC(=O)COc3ccccc3Cl)c(N3CCOCC3)c2)cc1
inhibition at 1 µM [3]: 21.6%

O=C(COc1ccccc1Cl)Nc1ccc(OC(=O)c2cccs2)cc1N1CCOCC1
inhibition at 1 µM [3]: 39.3%

O=C(COc1ccccc1Cl)Nc1ccc(OC(=O)c2ccco2)cc1N1CCOCC1
inhibition at 1 µM [3]: 31.4%

Cc1ccc(S(=O)(=O)CC(=O)Nc2cc(Cl)ccc2N2CCOCC2)cc1
inhibition at 2 µM ([1]; 0.5 h): 30.9%

CCC(=O)N1CCN(c2ccccc2NC(=O)COc2ccccc2Cl)CC1
inhibition at 1 µM [3]: 42%
Activity [30]: Active
inhibition [35]: Active

CC(C)(C)OC(=O)N[C@@H](Cc1cn(C(=O)OC(C)(C)C)cn1)C(=O)Oc1ccc(NC(=O)COc2ccccc2Cl)c(N2CCOCC2)c1
inhibition at 1 µM [3]: 34.6%

Cc1cc(OCC(=O)Nc2ccccc2N2CCOCC2)cc(C)c1Cl
inhibition [1]: inactive

O=C(COc1ccccc1Cl)Nc1ccc(OC(=O)c2ccccc2F)cc1N1CCOCC1
inhibition at 1 µM [3]: 34.2%
